Values of other authors as cited in paper PMC11860437, “Gold Nanoparticles as a Platform for Delivery of Immunogenic Peptides to THP-1 Derived Macrophages: Insights into Nanotoxicity” (Vaccines, 2025).

Key:
[1] = tested on: K562 human erythroleukemia cells
Excerpt: (§1) The cytotoxicity of p-Au68 was particularly high when conjugated with peptides p2 (~30–50% cell death) and p4 (~40–60% cell death). […] These peptides differ from each other by the presence of the arginine-rich TAT peptide (YGRKKRRQRRR). It is noteworthy that pTAT-functionalized NPs are considered a promising approach to overcome ...

HeLa, A549, and CHO = conditions: three cell lines (HeLa, A549, and CHO)
Excerpt: as §1

## YGRKKRRQRRR [pTAT]
[1]
  membrane toxicity: completely innocuous
HeLa, A549, and CHO
  toxicity: low toxicity
